Tests used:
[1] = test system: antibodies in sera from SARS patients (sera 1a, 1b, 2, 6, 37, 62, London, SARS-yellow, SARS-green); type: binding, human; design: Binding of serum 6 to linear peptides of protein X1 of SARS-CoV Urbani / Binding of serum 37 to linear peptides of protein X1 of SARS-CoV Urbani / Binding of serum 6 to looped/cyclic peptide (PEPSCAN-ELISA) / Binding of serum 37 to looped/cyclic peptide (PEPSCAN-ELISA) / Binding of serum 37 to looped/cyclic peptides of protein X1 of SARS-CoV Urbani / Binding of serum 6 to linear peptides of protein X2 / Binding of serum 37 to linear peptides of protein X2 / Binding of serum 37 to looped/cyclic peptides of protein X2 of SARS-CoV Urbani / Binding of serum 6 to linear peptides of protein M of SARS-CoV Urbani / Binding of serum 37 to linear peptides of protein M of SARS-CoV Urbani / Binding of serum 6 to looped/cyclic peptides of protein M of SARS-CoV Urbani / Binding of serum 37 to looped/cyclic peptides of protein M of SARS-CoV Urbani / Binding of serum 6 to linear peptides of protein X3 of SARS-CoV Urbani / Binding of serum 37 to linear peptides of protein X3 of SARS-CoV Urbani / Binding of serum 37 to looped/cyclic peptides of protein X3 of SARS-CoV Urbani / Binding of serum 6 to linear peptides of protein X4 of SARS-CoV Urbani / Binding of serum 37 to linear peptides of protein X4 of SARS-CoV Urbani / Binding of serum 37 to looped/cyclic peptides of protein X4 of SARS-CoV Urbani / Binding of serum 6 to linear peptides of protein X5 of SARS-CoV Urbani / Binding of serum 37 to linear peptides of protein X5 of SARS-CoV Urbani / Binding of serum 37 to looped/cyclic peptides of protein X5 of SARS-CoV Urbani / Binding of serum 6 to linear peptides of protein N of SARS-CoV Urbani / Binding of serum 37 to linear peptides of protein N of SARS-CoV Urbani / Binding of serum 6 to linear peptide (PEPSCAN-ELISA) / Binding of serum 1a to looped/cyclic peptides of protein N of SARS-CoV Urbani / Binding of serum 1b to looped/cyclic peptides of protein N of SARS-CoV Urbani / Binding of serum 2 to looped/cyclic peptides of protein N of SARS-CoV Urbani / Binding of serum 6 to looped/cyclic peptides of protein N of SARS-CoV Urbani / Binding of serum 37 to looped/cyclic peptides of protein N of SARS-CoV Urbani / Binding of serum 62 to looped/cyclic peptides of protein N of SARS-CoV Urbani / Binding of serum London to looped/cyclic peptides of protein N of SARS-CoV Urbani / Binding of serum SARS-green to looped/cyclic peptides of protein N of SARS-CoV Urbani: unit not given here
[2] = test system: control sera (pooled serum of ten healthy LUMC hospital workers; commercial negative donor pooled serum from the Dutch bloodbank); type: binding, human; design: Binding of Control serum LUMC to linear peptides / Binding of Control serum Blood-bank to linear peptides / Binding of Control serum LUMC to looped peptides / Binding of Control Serum Blood-Bank to Looped peptides / Binding of Control serum LUMC to linear peptides of the protein M of SARS-CoV Urbani / Binding of Control serum Blood-bank to linear peptides of the protein M of SARS-CoV Urbani / Binding of Control serum LUMC to looped peptides of the protein M of SARS-CoV Urbani / Binding of Control Serum Blood-Bank to Looped peptides of the protein M of SARS-CoV Urbani: unit not given here
[3] = test system: rabbit serum obtained by immunizing a rabbit with the SARS-CoV strain Frankfurt 1; type: binding; design: Binding of a rabbit serum to linear peptides / Binding of a rabbit serum to looped peptides / Rabbit serum linear peptides / Rabbit serum looped peptides / Binding of a rabbit serum to linear peptides of protein N of SARS-CoV Urbani (Rabbit serum linear peptides) / Binding of a rabbit serum to looped/cyclic peptides of protein N of SARS-CoV Urbani (Rabbit serum looped peptides): unit not given here

Row | Sequence | Binding of serum 1a to looped/cyclic peptides of protein X2 of SARS-CoV Urbani [1] | Binding of serum 1b to looped/cyclic peptides of protein X2 of SARS-CoV Urbani [1] | Binding of serum 2 to looped/cyclic peptides of protein X2 of SARS-CoV Urbani [1] | Binding of serum 6 to looped/cyclic peptides of protein X2 of SARS-CoV Urbani [1] | Binding of serum 37 to looped/cyclic peptides of protein X2 of SARS-CoV Urbani [1] | Binding of serum 62 to looped/cyclic peptides of protein X2 of SARS-CoV Urbani [1] | Binding of serum London to looped/cyclic peptides of protein X2 of SARS-CoV Urbani [1] | Binding of serum SARS-green to looped/cyclic peptides of protein X2 of SARS-CoV Urbani [1] | Binding of serum SARS-yellow to looped/cyclic peptides of protein X2 of SARS-CoV Urbani [1] | Binding of Control Serum Blood-Bank to Looped peptides [2] | Binding of Control serum Blood-bank to linear peptides [2] | Binding of Control serum LUMC to linear peptides [2] | Binding of Control serum LUMC to looped peptides [2] | Binding of a rabbit serum to linear peptides [3] | Binding of a rabbit serum to looped peptides [3] | also measured
1 | KTHRMCKYTQSTALQ | 0.4 | 0.4 | 0.2 | 0.4 | 0.2 | 0.4 | 0.2 | 0.2 | 0.2 | 0.5 | 0.6 | 0.5 | 0.4 | 0.3 | 0.3 | Binding of serum 1a to linear peptides of protein X2 [1]: 0.7; Binding of serum 1b to linear peptides of protein X2 [1]: 0.5; Binding of serum 2 to linear peptides of protein X2 [1]: 0.6; Binding of serum 6 to linear peptides of protein X2 [1]: 0.5; Binding of serum 37 to linear peptides of protein X2 [1]: 0.7; Binding of serum 62 to linear peptides of protein X2 [1]: 0.6; Binding of serum London to linear peptides of protein X2 [1]: 0.5; Binding of serum SARS-green to linear peptides of protein X2 [1]: 0.5; Binding of serum SARS-yellow to linear peptides of protein X2 [1]: 0.8
2 | KVLPFHRWHTMVQTC |  |  |  |  |  |  |  |  |  | 0.6 | 0.6 | 0.4 | 0.5 |  |  | Binding of serum 1a to linear peptides of protein X5 of SARS-CoV Urbani [1]: 0.9; Binding of serum 1a to looped/cyclic peptides of protein X5 of SARS-CoV Urbani [1]: 0.7; Binding of serum 1b to linear peptides of protein X5 of SARS-CoV Urbani [1]: 0.6; Binding of serum 1b to looped/cyclic peptides of protein X5 of SARS-CoV Urbani [1]: 0.7; Binding of serum 2 to linear peptides of protein X5 of SARS-CoV Urbani [1]: 0.7; Binding of serum 2 to looped/cyclic peptides of protein X5 of SARS-CoV Urbani [1]: 0.6; Binding of serum 6 to linear peptides of protein X5 of SARS-CoV Urbani [1]: 0.5; Binding of serum 6 to looped/cyclic peptides of protein X5 of SARS-CoV Urbani [1]: 0.7; Binding of serum 37 to linear peptides of protein X5 of SARS-CoV Urbani [1]: 0.7; Binding of serum 37 to looped/cyclic peptides of protein X5 of SARS-CoV Urbani [1]: 0.6; Binding of serum 62 to linear peptides of protein X5 of SARS-CoV Urbani [1]: 0.7; Binding of serum 62 to looped/cyclic peptides of protein X5 of SARS-CoV Urbani [1]: 0.6; Binding of serum London to linear peptides of protein X5 of SARS-CoV Urbani [1]: 1.2; Binding of serum London to looped/cyclic peptides of protein X5 of SARS-CoV Urbani [1]: 0.4; Binding of serum SARS-green to linear peptides of protein X5 of SARS-CoV Urbani [1]: 0.6; Binding of serum SARS-green to looped/cyclic peptides of protein X5 of SARS-CoV Urbani [1]: 0.4; Binding of serum SARS-yellow to linear peptides of protein X5 of SARS-CoV Urbani [1]: 0.2; Binding of serum SARS-yellow to looped/cyclic peptides of protein X5 of SARS-CoV Urbani [1]: 0.3; Rabbit serum linear peptides [3]: 0.6; Rabbit serum looped peptides [3]: 0.5
3 | KVSTNLCTHSFRKKQ | 0.4 | 0.3 | 0.5 | 0.5 | 0.4 | 0.6 | 0.2 | 0.3 | 0.5 | 0.4 | 1.0 | 0.8 | 0.7 | 0.3 | 0.1 | Recognition of the peptide by sera of SARS-CoV infected individuals, and form (linear, looped/cyclic) in which it is recognized [1]: recognized in linear form

Reference: patent US20070128217A1 (priority 2003, published 2007)
